The record followed here is patent US20230000869A1, “NOVEL ALK2 INHIBITORS AND METHODS FOR INHIBITING BMP SIGNALING” (The Brigham and Women's Hospital, Inc., priority 2017, published 2023).

The target of one assay is T1, ALK1 (Homo sapiens, UniProt P37023).
T1 construct: purchased Life technology (Fredrick, Md.) and/or CARNA BIOSCIENCES Inc. (Kobe, Japan)
Description: TR-FRET enzymatic assay, ALK1 kinase, 1536-well. It is filed as biochemical. The conditions noted are these: for IC50 / ALK1 Span: TR-FRET; for IC50: 10 nM ALK, Ulight topo II substrate 50 nM, ATP 10 uM (Table 1); for ALK1 Span: span of the concentration-response curve. The text has this: (§1) We have developed six ALK kinase enzyme assays for determination of compound activities on ALK1, ALK2, ALK3, ALK4, ALK5 and ALK6. For the assay development, we had tested a number of substrates and assay conditions that led to the final optimized assay protocols with good assay windows with signal to basal (S/B) ratios above 20 fold for all six ALK assays (FIG. 1). In our knowledge, these ALK kinase assays have not been reported elsewhere.
(§2) ALK1 and ALK2-ALK6 were obtained from Life technology (Fredrick, Md.) and CARNA BIOSCIENCES Inc. (Kobe, Japan). Ulight-DNA Topoisomerase 2 alpha (Thr-1342) peptide and Europium anti-phospho-DNA Topoisomerase 2 alpha (Thr-1342) antibody was from Perkin Elmer Inc. The kinase buffer was composed of 50 mM HEPES pH7.0, 10 mM MgCl2, 3 mM MnCl2, 0.005% Tween-20 and 2 mM DTT. The compound plates and the white solid MB assay plates were purchased from Greiner Bio-one (Monroe, N.C.).
(§3) The binding of Eu-anti-phospho-peptide antibody to the phosphorylated Ulight peptide substrate bring both Eu donor and Ulight acceptor dye into close proximity. Upon excitation at 320-340 nm, the emission energy from Eu donor is transferred to Ulight acceptor dye that will generate light at 665 nm. The intensity light emission is proportional to the level of the peptide phosphorylation by ALKs. The assay was optimized and performed in 1536 plate (Table 1). Briefly, the ALKs enzymatic assay was initiated by dispense 2.5 ul enzyme with a final concentration at 10 nM prepared in 1× kinase reaction buffer. The assay plate was then added with compounds with the Pintool station (23 nl/well compound dilutions in DMSO solution) that was followed by incubation at room temperature for 10 minutes. Then 2.5 ul/well substrate was added in which 50 nM peptide substrate mixed with 10 uM, 100 uM or 1 mM ATP (final concentration). The assay plate was incubated at room temperature for 60 minutes and the kinase reaction was stopped by addition of 5 ul/well of 4 nM Eu-anti-phospho-peptide antibody with 12 mM EDTA prepared in 1× detection buffer. The assay plate was measured in an EnVision plate reader (Perkin Elmer) in the TR-FRET detection mode (excitation at 340 nm and emission at 665 nm).
A general note: Time-resolved FRET reads energy transfer from a long-lived donor to a nearby acceptor.

The target of the next assay is T2, ALK2 (Mus musculus, UniProt P37172).
T2 construct: endogenous in cells; host or cells: C2C12-BRE (BRE-Luc reporter line, G418 selection)
T2 sequence (P37172 21-509): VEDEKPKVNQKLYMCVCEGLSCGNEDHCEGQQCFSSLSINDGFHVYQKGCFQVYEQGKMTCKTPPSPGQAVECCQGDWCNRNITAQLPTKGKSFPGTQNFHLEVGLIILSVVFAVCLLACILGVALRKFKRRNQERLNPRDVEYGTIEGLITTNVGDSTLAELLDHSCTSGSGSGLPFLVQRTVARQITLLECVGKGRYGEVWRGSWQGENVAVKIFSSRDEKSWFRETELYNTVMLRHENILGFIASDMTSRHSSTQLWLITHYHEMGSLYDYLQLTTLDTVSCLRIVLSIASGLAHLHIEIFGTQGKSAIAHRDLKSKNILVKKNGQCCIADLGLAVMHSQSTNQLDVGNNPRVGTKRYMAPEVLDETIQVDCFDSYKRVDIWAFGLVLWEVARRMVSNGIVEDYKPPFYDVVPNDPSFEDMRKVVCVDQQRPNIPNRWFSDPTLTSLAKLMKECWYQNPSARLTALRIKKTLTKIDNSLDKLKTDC
Description: Luciferase reporter gene assay for ALK2 activity (C2C12 BRE-Luc SMAD1/5/8 reporter, BMP6 agonist). Format: cell-based. The conditions noted are these: BMP6 50 ng/mL. In outline:
(§4)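 TGFβ activity was measured in HEK293T SBE-Luc cells stimulated with 5 ng/mL TGFβ, at compound 10000-30 nM final. ALK2 activity was measured in C2C12 BRE-Luc cells stimulated with 50 ng/mL BMP6, at compound 1000-0.3 nM final. Compound was preincubated 45 min in 2% FBS medium; after ≥18 h agonist exposure, luminescence was read and inhibition expressed as % signal loss versus background-subtracted agonist controls.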
On the technique in general: In a reporter assay the amount or activity of a reporter protein is the signal.

The test system of the next assay is TGFβ. Description: Luciferase reporter gene assay for TGFβ activity (HEK293T SBE-Luc SMAD2/3 reporter, TGFβ agonist). It is filed as cell-based. The conditions noted are these: Homo sapiens, HEK-293T, TGFβ 5 ng/mL. The method in brief:
as §4

The target of another assay is T3, ALK6 (Homo sapiens, UniProt O00238).
T3 construct: purchased Life technology (Fredrick, Md.) and/or CARNA BIOSCIENCES Inc. (Kobe, Japan)
Description: TR-FRET enzymatic assay, ALK6 kinase, 1536-well. It is filed as biochemical. Conditions: for IC50: 10 nM ALK, Ulight topo II substrate 50 nM, ATP 10 uM (Table 1); for ALK6 Span: span of the concentration-response curve.
From the text: as §1, §2, §3

The next assay has as its target T4, ALK3 (Homo sapiens, UniProt P36894).
T4 construct: purchased Life technology (Fredrick, Md.) and/or CARNA BIOSCIENCES Inc. (Kobe, Japan)
The assay is described as follows: TR-FRET enzymatic assay, ALK3 kinase, 1536-well. Format: biochemical. The conditions noted are these: for IC50: 10 nM ALK, Ulight topo II substrate 50 nM, ATP 10 uM (Table 1); for ALK3 Span: span of the concentration-response curve.
From the text: as §1, §2, §3

T4 sequence (P36894 24-532): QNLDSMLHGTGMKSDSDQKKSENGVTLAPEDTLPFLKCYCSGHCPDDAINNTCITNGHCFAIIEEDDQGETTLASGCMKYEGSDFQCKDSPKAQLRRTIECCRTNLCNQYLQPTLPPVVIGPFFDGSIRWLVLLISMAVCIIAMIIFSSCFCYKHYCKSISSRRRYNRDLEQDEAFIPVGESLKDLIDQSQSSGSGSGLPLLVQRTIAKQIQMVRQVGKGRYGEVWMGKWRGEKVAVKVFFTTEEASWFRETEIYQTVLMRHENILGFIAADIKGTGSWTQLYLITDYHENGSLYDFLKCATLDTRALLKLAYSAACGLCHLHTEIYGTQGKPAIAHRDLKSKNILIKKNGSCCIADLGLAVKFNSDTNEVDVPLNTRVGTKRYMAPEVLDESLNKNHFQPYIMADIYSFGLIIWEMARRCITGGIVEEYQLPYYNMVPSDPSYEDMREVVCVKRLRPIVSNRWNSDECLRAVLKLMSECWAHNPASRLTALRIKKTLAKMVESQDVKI
T1 sequence (P37023 22-503): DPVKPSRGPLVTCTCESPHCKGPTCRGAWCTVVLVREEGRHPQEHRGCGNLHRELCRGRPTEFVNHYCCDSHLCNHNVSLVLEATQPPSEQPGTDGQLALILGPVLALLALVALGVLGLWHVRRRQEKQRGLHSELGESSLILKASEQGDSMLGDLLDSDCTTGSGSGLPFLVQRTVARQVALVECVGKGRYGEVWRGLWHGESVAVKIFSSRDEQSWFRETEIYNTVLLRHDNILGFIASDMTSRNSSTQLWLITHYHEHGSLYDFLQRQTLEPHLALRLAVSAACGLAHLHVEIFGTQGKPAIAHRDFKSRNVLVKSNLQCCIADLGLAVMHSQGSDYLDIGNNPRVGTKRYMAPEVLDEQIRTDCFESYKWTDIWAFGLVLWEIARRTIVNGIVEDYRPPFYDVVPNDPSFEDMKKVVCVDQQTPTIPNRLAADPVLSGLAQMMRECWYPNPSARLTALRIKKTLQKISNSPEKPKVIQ
T3 sequence (O00238 14-502): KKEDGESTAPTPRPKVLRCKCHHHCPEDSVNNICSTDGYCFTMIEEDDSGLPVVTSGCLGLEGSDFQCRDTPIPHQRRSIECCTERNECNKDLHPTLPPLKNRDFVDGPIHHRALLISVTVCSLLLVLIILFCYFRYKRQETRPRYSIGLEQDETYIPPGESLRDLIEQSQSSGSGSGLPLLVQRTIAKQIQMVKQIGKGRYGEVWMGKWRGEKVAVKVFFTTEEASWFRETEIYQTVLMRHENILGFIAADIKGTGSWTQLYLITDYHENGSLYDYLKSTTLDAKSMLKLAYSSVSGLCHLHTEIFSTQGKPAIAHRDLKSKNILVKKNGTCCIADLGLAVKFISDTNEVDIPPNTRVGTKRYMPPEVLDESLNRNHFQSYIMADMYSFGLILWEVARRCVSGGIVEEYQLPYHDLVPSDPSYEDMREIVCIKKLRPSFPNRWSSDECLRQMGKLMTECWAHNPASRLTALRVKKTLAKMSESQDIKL

On to `Cc1cc(-c2cnn3cc(N4CCC(N5CCOCC5)CC4)cnc23)c2ccccc2n1` [Compound 11], for which the half-maximal inhibitory concentration (IC50) (usually the concentration needed to halve the response being measured) came to 269 nM against ALK1; 54 nM on ALK2; 55 nM in the assay on TGFβ; 2980 nM against ALK6; 1280 nM on ALK3. Also, on ALK1, the “ALK1 Span” value was determined as 91.4. The “ALK6 Span” value on ALK6 turned out to be 89.9. Besides, on ALK3, the “ALK3 Span” value was around 115.7.

With `COc1cc2c(-c3cnn4cc(N5CCC(N6CCN(C)CC6)CC5)cnc34)ccnc2cc1F` [Compound 15, 7-fluoro-6-methoxy-4-(6-(4-(4-methylpiperazin-1-yl)piperidin-1-yl)pyrazolo[1,5-a]pyrimidin-3-yl)quinoline], the IC50 amounted to 1520 nM at ALK1; 19 nM on ALK2; 284 nM with TGFβ; 10300 nM against ALK6; 2820 nM at ALK3. In addition, the “ALK1 Span” value at ALK1 came out at 92.3. Besides, the “ALK6 Span” value on ALK6 was found to be 80.81. Further, the “ALK3 Span” value on ALK3 was found to be 96.93.

Take `c1ccc2c(-c3cnn4cc(-c5ccc(N6CCNCC6)cc5)cnc34)ccnc2c1` [TRND00262637-13]: the “activity in ALK1 in the presence of 10, 100, or 1,000 uM ATP” value at ALK1 (FIG. 3, ATP 10 uM versus 100 uM or 1 mM) is listed as “activity reduced in the higher ATP concentrations”.

With `Cc1cc(-c2cnn3cc(N4CCC(N5CCN(C)CC5)CC4)cnc23)c2ccccc2n1` [Compound 8], the IC50 on ALK1 worked out at 325 nM; at ALK2, 5 nM; in the assay on TGFβ, 22 nM; on ALK6, 2400 nM; on ALK3, 1240 nM. Also, at ALK1, the “ALK1 Span” value is given as 89.1. Further, the “ALK6 Span” value on ALK6 is given as 86.5. Moreover, the “ALK3 Span” value at ALK3 was 97.0.

As for `Cc1cc(-c2cnn3cc(N4CCC(N5CCNCC5)CC4)cnc23)c2ccccc2n1` [Compound 34], the IC50 was 671 nM on ALK1; 37 nM at ALK2; 27 nM in the assay on TGFβ; 4060 nM at ALK6; 1870 nM on ALK3. Further, the “ALK1 Span” value at ALK1 amounted to 93.42. Also, the “ALK6 Span” value on ALK6 is recorded as 91.28. Further, the “ALK3 Span” value on ALK3 was 104.4.
